# Assay results taken from PubChem BioAssay (NCI).
#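 Cells were grown in 96-well plates and exposed to each compound for 48 hours at five concentrations; endpoints were interpolated linearly between bracketing concentrations, or set to the highest concentration if not reached. TGI marks complete inhibition of growth.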
# Key:
# Experiment in all cases: growth of human tumour cells (NCI), 48 h
# SK-MEL-28 melanoma = system: SK-MEL-28 melanoma
# RPMI-8226 leukemia = system: RPMI-8226 leukemia
# NCI-H460 lung = system: NCI-H460 lung
# LOX IMVI melanoma = system: LOX IMVI melanoma
# SK-OV-3 ovarian = system: SK-OV-3 ovarian
# UO-31 renal = system: UO-31 renal
# SF-295 CNS = system: SF-295 CNS
# PC-3 prostate = system: PC-3 prostate
# SW-620 colon = system: SW-620 colon
# OVCAR-3 ovarian = system: OVCAR-3 ovarian
Structure (SMILES),TGI (SK-MEL-28 melanoma) [µM],TGI (RPMI-8226 leukemia) [µM],TGI (NCI-H460 lung) [µM],TGI (LOX IMVI melanoma) [µM],TGI (SK-OV-3 ovarian) [µM],TGI (UO-31 renal) [µM],TGI (SF-295 CNS) [µM],TGI (PC-3 prostate) [µM],TGI (SW-620 colon) [µM],TGI (OVCAR-3 ovarian) [µM]
Cc1cn(C2CC(O)C(CO)O2)c(=O)[nH]c1=O (stereo unspecified),> 5000,> 5000,> 5000,> 5000,> 4890,> 5000,> 5000,> 5000,> 5000,> 2650
COC(=O)C1CCC(=O)N1C(c1ccc(OC)cc1)c1ccc2c(c1)OCO2 (stereo unspecified),> 100,> 100,> 100,> 100,> 100,> 100,48,> 100,> 100,> 100
COc1ccc2c(c1)/C(=C\c1c(Cl)nc3sc(C)cn13)C(=O)N2,25.5,13.8,12.3,18.1,14.6,19,11,12.4,11.7,8.83
O=[N+]([O-])C(/C=C(\Cl)n1nnc2ccccc21)=C(/Cl)n1nnc2ccccc21,> 100,> 100,> 100,> 100,> 100,> 100,> 100,> 100,,> 100
CCOC(=O)Cn1c(=O)c2nc(SC)sc2n(-c2ccccc2)c1=O,> 100,> 100,> 100,,,> 100,,> 100,> 100,
O=C(O)CCC(=O)OC1N=C(c2ccccc2Cl)c2cc([N+](=O)[O-])ccc2NC1=O (stereo unspecified),> 100,,> 100,> 100,> 100,> 100,> 100,> 100,> 100,> 100
Cc1cc(C(=O)CCCCOc2ccc(C3=NCCO3)cc2)c(C)n1C,83.1,62.4,,,> 100,> 100,> 100,59.7,> 100,> 100
CC(=N/N=C/c1ccccn1)/C(C)=N/N=C(C)/C(C)=N/N=C(C)/C(C)=N/N=C(C)/C(C)=N\N=C\c1ccccn1,> 100,> 100,> 100,> 100,> 100,> 100,> 100,> 100,> 100,> 100
O=C1NCC2(CCN(CCCC3(c4ccc(F)cc4)OCCO3)CC2)N1c1ccccc1,> 100,> 100,> 100,> 100,,,> 100,> 100,> 100,> 100
CC1CCC(C(=O)O)(C(Br)C(=O)O)CC1 (stereo unspecified),> 100,> 100,> 100,> 100,,> 100,> 100,> 100,> 100,> 100
Oc1ccc([I+]c2ccccc2)cc1O,> 100,61.4,> 100,> 100,,> 100,> 100,64.1,37.1,> 100
CN(C)c1ccc(S(=O)Nc2ccccc2)cc1 (stereo unspecified),> 100,> 100,> 100,> 100,,> 100,> 100,,> 100,> 100
